We go through two compounds from patent US5213978A, “Protease from Micrococcus sedentarius for degrading protein of human callus or corn tissue” (Scholl Plc, priority 1990, dated 1993).

This experiment deals with Micrococcus sedentarius NCIMB 40287. Briefly: Antibiotic sensitivities by the disc method. It is filed as cell-based. As to conditions: disc amount as printed per antibiotic (1 unit, 5-30 μg).

For `CN[C@H](CC(C)C)C(=O)N[C@H]1C(=O)N[C@@H](CC(N)=O)C(=O)N[C@H]2C(=O)N[C@H]3C(=O)N[C@H](C(=O)N[C@H](C(=O)O)c4cc(O)cc(O)c4-c4cc3ccc4O)[C@H](O)c3ccc(c(Cl)c3)Oc3cc2cc(c3O[C@@H]2O[C@H](CO)[C@@H](O)[C@H](O)[C@H]2O[C@H]2C[C@](C)(N)[C@H](O)[C@H](C)O2)Oc2ccc(cc2Cl)[C@H]1O` [Vanomycin], the Antibiotic sensitivity result is listed as “S”. The entry for Neomycin is “S”.
